Measured values as given in PubChem BioAssay AID2744 (NMMLSC, 2010).
Active and inactive are the calls of the source.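 How the source made its calls: active means fitted half-maximal concentration for changing reporter fluorescence at or below a set limit; inactive means the rest.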

Molecular target: Citrate synthase, peroxisomal (Saccharomyces cerevisiae (strain ATCC 204508 / S288c)) (UniProt P08679)
Test: CIT2-GFP expression modulators in yeast, dose response, flow cytometry, MLPCN hits (AID 2744)
Details: S. cerevisiae CIT2-GFP strain, 3 h, at 33 µM (top of the series)

Citrate synthase, peroxisomal (Saccharomyces cerevisiae (strain ATCC 204508 / S288c)), sequence (P08679 whole entry, looked up): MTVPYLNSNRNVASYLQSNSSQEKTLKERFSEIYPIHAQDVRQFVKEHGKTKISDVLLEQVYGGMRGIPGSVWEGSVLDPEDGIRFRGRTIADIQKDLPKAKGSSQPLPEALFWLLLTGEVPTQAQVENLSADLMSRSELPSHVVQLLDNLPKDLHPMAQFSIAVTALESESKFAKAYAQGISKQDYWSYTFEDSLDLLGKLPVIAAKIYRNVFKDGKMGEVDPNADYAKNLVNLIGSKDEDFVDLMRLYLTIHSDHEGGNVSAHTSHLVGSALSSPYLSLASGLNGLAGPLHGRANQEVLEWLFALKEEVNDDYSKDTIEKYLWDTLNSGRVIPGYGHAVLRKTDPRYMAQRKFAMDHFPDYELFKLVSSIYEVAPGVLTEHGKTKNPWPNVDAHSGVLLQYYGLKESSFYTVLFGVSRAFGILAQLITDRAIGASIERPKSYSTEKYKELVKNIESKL

Row | SMILES | GFP fluorescence, higher = induction
1 | CC(=O)Oc1ccc(N2C(=O)C3C4C=CC(CO)(O4)C3C2=O)cc1 (stereo not given) | inactive
2 | N#Cc1c2ccc([N+](=O)[O-])cc2[n+]([O-])n1-c1ccccc1 | inactive
3 | Cc1ccc(C(=O)Oc2oc(-c3ccccc3)nc2C=Nc2ccc(N(C)C)cc2)cc1 | inactive
4 | CC(C)Oc1ccc(C(=O)/C=C2/C(=O)Nc3ccccc32)cc1 | inactive
5 | O=C(OCn1ncc(Br)c(Br)c1=O)c1ccccc1Cl | inactive
6 | C=CCN1C(=O)/C(=C/c2cccs2)C(=O)NC1=S | inactive
7 | CC(Oc1ccc2ccccc2c1)C(=O)NNC(=S)NC(=O)c1ccco1 (stereo not given) | inactive
8 | O=C(Nc1nnc(-c2ccc3c(c2)CCCC3)o1)c1ccc(Cl)cc1Cl | inactive
9 | CC(C)(C)C(=O)NC(=S)NNC(=O)c1sc2ccccc2c1Cl | inactive
10 | CCN(CC)c1ccc2cc(-c3nc4ccccc4[nH]3)c(=O)oc2c1 | inactive
11 | O=c1cc(CSc2ccc(Cl)cc2)nc(-c2ccccn2)[nH]1 | inactive
12 | O=C(Nc1ccccc1)c1nnsc1S(=O)(=O)c1ccc(Cl)cc1 | inactive
13 | COc1ccccc1[C@]1(C)ON(c2ccccc2C(F)(F)F)C1=O | inactive
14 | CC(Oc1ccc(Br)cc1)C(=O)Nc1nc(-c2ccccn2)cs1 (stereo not given) | inactive
15 | Cc1sc(/C=C2\C(=O)ON=C2c2ccccc2)cc1Br | inactive
16 | C#CCOCCOCCOCCNc1nc(N2CCN(C(=O)CCCCCCCCCCNC(=O)[C@H](CCCCN)n3cc(CCCC(=O)O)nn3)CC2)nc(N2CCN(C(=O)CCCCCCCCCCNC(=O)[C@H](CCCN=C(N)N)n3cc(C[C@@H](C)CC)nn3)CC2)n1 | inactive
17 | Cc1cc(/C=C2/SC(=S)N(c3cccc(Cl)c3)C2=O)c(C)n1-c1cccnc1 | inactive
18 | CC1=C/C(=N\OS(=O)(=O)c2ccccc2)C(C(C)C)=CC1=O | inactive
19 | O=C1Oc2ccccc2C(=O)/C1=C/c1ccccc1O | inactive
20 | O=C(CCS(=O)(=O)c1ccccc1)Nc1nc(-c2ccccn2)cs1 | inactive
21 | Cc1ccc2[nH]cc(/C=C/c3cc[n+](C)cc3)c2c1 | inactive
22 | COc1cc(NC(=O)c2ccccc2[N+](=O)[O-])ccc1NC(=O)c1cc2ccccc2o1 | inactive
23 | C=C1C(O)[C@@H]2O[C@]3(CC[C@H](/C=C/C(C)[C@@H]4CC(C)=CC5(O[C@H](C[C@@](C)(O)C(=O)O)CCC5O)O4)O3)CC[C@H]2O[C@@H]1C(O)CC(C)[C@H]1OC2(CCCCO2)CCC1C (stereo not given in full) | inactive
24 | O=C1NC(=O)C(=Cc2ccc(-c3ccc(Cl)cc3)o2)C(=O)N1 | inactive
25 | CC(C)(C)C(=O)NC(=S)NNC(=O)c1ccc(-c2ccccc2)cc1 | inactive
26 | Oc1c(Br)cc(Br)cc1C=Nc1ccc2c(c1)OCO2 | inactive
27 | CCOC(=O)c1c(C)oc2c1c(C(c1cccnc1)N1CCOCC1)c(O)c1ccccc12 (stereo not given) | inactive
28 | Cc1ccnc(N2C(=O)c3cccc4c([N+](=O)[O-])ccc(c34)C2=O)c1 | inactive
29 | O=C(/C=C/c1cccc([N+](=O)[O-])c1)c1ccc([N+](=O)[O-])o1 | inactive
30 | O=C1N(c2ccccc2C(F)(F)F)O[C@@]1(c1ccccc1)C1CCCCC1 | inactive
